Assays:
[1] = molecular target: T1, Human CARM1 (PRMT4) (Homo sapiens, UniProt Q86X55); assay: CARM1 enzyme assay on peptide substrates (3H-SAM Flashplate); settings: Biochemical assay; CARM1 0.25 nM, 3H-SAM 30 nM, peptide 250 nM; read-out: Biochem IC50
T1 construct: Flag-CARM1-His was eluted with 200 ug/ml FLAG peptide in buffer A; made in house; host or cells: HEK 293F cells infected with recombinant baculovirus (pFastBacMam)
T1 sequence (Q86X55 1-585 isoform Q86X55-1): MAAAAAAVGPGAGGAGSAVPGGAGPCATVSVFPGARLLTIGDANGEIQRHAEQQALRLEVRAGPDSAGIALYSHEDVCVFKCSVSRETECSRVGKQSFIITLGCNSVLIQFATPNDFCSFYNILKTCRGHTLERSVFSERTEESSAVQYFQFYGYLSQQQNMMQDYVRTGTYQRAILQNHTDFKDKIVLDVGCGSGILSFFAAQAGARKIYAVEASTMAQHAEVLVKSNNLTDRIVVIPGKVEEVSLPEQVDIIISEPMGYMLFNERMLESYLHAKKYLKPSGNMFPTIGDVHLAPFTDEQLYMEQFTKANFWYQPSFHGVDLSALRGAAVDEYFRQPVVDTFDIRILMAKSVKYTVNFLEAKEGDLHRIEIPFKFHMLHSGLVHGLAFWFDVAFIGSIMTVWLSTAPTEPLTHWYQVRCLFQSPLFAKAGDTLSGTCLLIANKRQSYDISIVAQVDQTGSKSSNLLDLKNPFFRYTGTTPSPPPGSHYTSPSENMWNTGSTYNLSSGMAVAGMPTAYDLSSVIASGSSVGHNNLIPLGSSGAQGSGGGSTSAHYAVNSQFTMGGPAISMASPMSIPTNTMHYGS

[2] = tested on: asymmetric di-methyl PABP1 in RKO cells; assay: RKO methylation assay: In Cell Western (ICW) for asymmetric di-methyl PABP1 (PABP1me2a); settings: Homo sapiens, RKO, 48 h, Cellular-based (PABP1me2a) ICW (In Cell Western) assay
Summary of the method: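 In-cell western on compound-exposed RKO cells (48 hours): asymmetric di-methyl PABP1 detected by antibody at 800 nm, DNA content by DRAQ5 at 700 nm. Percent inhibition from signal ratios against DMSO (minimum) and 20 μM reference compound (maximum) wells; IC50 curves fitted from triplicates.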

Compound	IC50 [1] [µM]	IC50 [2] [µM]
CNC[C@@H](O)COc1ccc(Cl)c(-c2nc(-c3c(C)noc3C)c(C)c(N3CC4(CCC(OCCOC)CC4)C3)n2)c1 [Example 128]	0.0163	0.099
CNC[C@@H](O)COc1ccc(Cl)c(-c2nc(-c3c(C)noc3C)c(C)c(N3Cc4cn(C)nc4C3)n2)c1 [Example 129]	0.0077	0.046
CNC[C@@H](O)COc1ccc(Cl)c(-c2nc(-c3c(C)noc3C)c(C)c(N3C[C@H]4C[C@@H]3CN4C(=O)OC)n2)c1 [Example 130]	0.0059	0.96
CNC[C@@H](O)COc1ccc(Cl)c(-c2nc(-c3c(C)noc3C)c(C)c(N3C[C@H]4C[C@@H]3CN4CC(F)F)n2)c1 [Example 131]	0.009	0.612
CNC[C@@H](O)COc1ccc(Cl)c(-c2nc(-c3c(C)noc3C)c(C)c(N3CC4(CC(OC(C)C)C4)C3)n2)c1 [Example 133]	0.0099	0.042
CNC[C@@H](O)COc1ccc(Cl)c(-c2nc(-c3c(C)noc3C)c(C)c(N3CC4(CC(OCC(F)F)C4)C3)n2)c1 [Example 134]	0.0085	0.045
CNC[C@@H](O)COc1ccc(Cl)c(-c2nc(-c3c(C)noc3C)c(C)c(N3Cc4cnn(C5CCOCC5)c4C3)n2)c1 [Example 135]	0.0046	0.093
CNC[C@@H](O)COc1ccc(Cl)c(-c2nc(-c3c(C)noc3C)c(C)c(N3Cc4cn(C5CCOCC5)nc4C3)n2)c1 [Example 136]	0.0051	0.172
CNC[C@@H](O)COc1ccc(Cl)c(-c2nc(-c3c(C)noc3C)c(C)c(N3C[C@@H]4C[C@H]3CN4CC(F)F)n2)c1 [Example 137]	0.008	0.311
CNC[C@@H](O)COc1ccc(Cl)c(-c2nc(-c3c(C)noc3C)c(C)c(-n3cc4c(n3)CN(C(=O)OC)C4)n2)c1 [Example 139]	0.0052	0.131
CNC[C@@H](O)COc1ccc(Cl)c(-c2nc(-c3c(C)noc3C)c(C)c(N3CC4(CC(F)C4)C3)n2)c1 [Example 140]	0.0042	0.241
CNC[C@@H](O)COc1ccc(Cl)c(-c2nc(-c3c(C)noc3C)c(C)c(N3CC4(CC(Cl)C4)C3)n2)c1 [Example 141]	0.0037	0.173
CNC[C@@H](O)COc1ccc(Cl)c(-c2nc(-c3c(C)noc3C)c(C)c(N3Cc4cnc(C)cc4[C@@H]3C)n2)c1 [Example 142]	0.0036	0.065
CNC[C@@H](O)COc1ccc(Cl)c(-c2nc(-c3c(C)noc3C)c(C)c(N3Cc4cnc(N5CC(F)(F)C5)nc4C3)n2)c1 [Example 143]	0.0028	0.015
CNC[C@@H](O)COc1ccc(Cl)c(-c2nc(-c3c(C)noc3C)c(C)c(N3Cc4cnc(N5CCOCC5)nc4C3)n2)c1 [Example 144]	0.0033	0.022
CNC[C@@H](O)COc1ccc(Cl)c(-c2nc(-c3c(C)noc3C)c(C)c(N3Cc4cnc(N5CC(F)C5)nc4C3)n2)c1 [Example 145]	0.002	0.015
CNC[C@@H](O)COc1ccc(Cl)c(-c2nc(-c3c(C)c(Cl)nn3C)c(C)c(N3Cc4cnc(N5CC(F)(F)C5)nc4C3)n2)c1 [Example 146]	0.0027	0.026
CNC[C@@H](O)COc1ccc(Cl)c(-c2nc(-c3c(C)noc3C)c(C)c(N3Cc4cnc(N5CC(OC)C5)nc4C3)n2)c1 [Example 147]	0.0028	0.016
CNC[C@@H](O)COc1ccc(Cl)c(-c2nc(-c3c(C)noc3C)c(C)c(N3Cc4nc(C)oc4C3)n2)c1 [Example 149]	0.0031	0.052
CNC[C@@H](O)COc1ccc(Cl)c(-c2nc(-c3c(C)noc3C)c(C)c(N3Cc4cccnc4C3)n2)c1Cl [Example 150]	0.0162	2.02
CNC[C@@H](O)COc1ccc(Cl)c(-c2nc(-c3c(C)noc3C)c(C)c(N3C[C@H]4C[C@@H]3CN4CC(F)(F)F)n2)c1 [Example 151]	0.0121	0.668

Compound	IC50 [1] [µM]	IC50 [2] [µM]
CNC[C@@H](O)COc1ccc(Cl)c(-c2nc(-c3c(C)c(Cl)nn3C)c(C)c(N3Cc4cnc(OC)nc4C3)n2)c1 [Example 152]	0.0019	0.018
CNC[C@@H](O)COc1ccc(Cl)c(-c2nc(-c3c(C)c(Cl)nn3C)c(C)c(N3Cc4cnc(N5CCC5)nc4C3)n2)c1 [Example 153]	0.0019	0.015
CNC[C@@H](O)COc1ccc(Cl)c(-c2nc(-c3c(C)noc3C)c(C)c(N3Cc4ncnc(OCC(F)F)c4C3)n2)c1 [Example 154]	0.0031	0.057
CCOc1ncc2c(n1)CN(c1nc(-c3cc(OC[C@H](O)CNC)ccc3Cl)nc(-c3c(C)c(Cl)nn3C)c1C)C2 [Example 155]	0.0024	0.018
CNC[C@@H](O)COc1ccc(Cl)c(-c2nc(-c3c(C)c(Cl)nn3C)c(C)c(N3Cc4cnc(OCC(F)F)nc4C3)n2)c1 [Example 156]	0.0035	0.031
CCN(C)c1ncc2c(n1)CN(c1nc(-c3cc(OC[C@H](O)CNC)ccc3Cl)nc(-c3c(C)noc3C)c1C)C2 [Example 157]	0.0024	0.026
CNC[C@@H](O)COc1ccc(Cl)c(-c2nc(-c3c(C)noc3C)c(C)c(N3Cc4cnc(N(C)C)nc4C3)n2)c1 [Example 158]	0.0029	0.018
CCN(C)c1ncc2c(n1)CN(c1nc(-c3cc(OC[C@H](O)CNC)ccc3Cl)nc(-c3c(C)c(Cl)nn3C)c1C)C2 [Example 159]	0.002	0.039
CNC[C@@H](O)COc1ccc(Cl)c(-c2nc(-c3c(C)noc3C)c(C)c(N3CC4(CC(C(=O)N5CC(OC)C5)C4)C3)n2)c1 [Example 162]	0.0069	0.55
CNC[C@@H](O)COc1ccc(Cl)c(-c2nc(-c3c(C)noc3C)c(C)c(N3CC4(CC(C(=O)N5CCC5)C4)C3)n2)c1 [Example 163]	0.0062	0.292
CNC[C@@H](O)COc1ccc(Cl)c(-c2nc(-c3c(C)noc3C)c(C)c(N3Cc4nccc(C)c4C3)n2)c1 [Example 164]	0.0022	0.055
CNC[C@@H](O)COc1ccc(Cl)c(-c2nc(-c3c(C)noc3C)c(C)c(N3CC4(CCC(C(=O)N5CCOCC5)CC4)C3)n2)c1 [Example 165]	0.0058	0.322
CNC[C@@H](O)COc1ccc(Cl)c(-c2nc(-c3c(C)noc3C)c(C)c(N3Cc4cnc(OC5CCOCC5)nc4C3)n2)c1 [Example 166]	0.0051	0.049
CNC[C@@H](O)COc1ccc(Cl)c(-c2nc(-c3c(C)noc3C)c(C)c(N3Cc4cnc(N5CCC5C)nc4C3)n2)c1 (stereo partly shown) [Example 167]	0.0019	0.019
CNC[C@@H](O)COc1ccc(Cl)c(-c2nc(-c3c(C)c(Cl)nn3C)c(C)c(N3Cc4cnc(N(C)C)nc4C3)n2)c1 [Example 168]	0.0025	0.026
CNC[C@@H](O)COc1ccc(Cl)c(-c2nc(-c3c(C)noc3C)c(C)c(N3Cc4cnc(OC)cc4C3)n2)c1 [Example 169]	0.0021	0.034
CNC[C@@H](O)COc1ccc(Cl)c(-c2nc(-c3c(C)noc3C)c(C)c(N3Cc4ccc(OC)nc4C3)n2)c1 [Example 170]	0.0019	0.038
CCc1onc(C)c1-c1nc(-c2cc(OC[C@H](O)CNC)ccc2Cl)nc(N2CC3(CC(OC)C3)C2)c1C [Example 171]	0.0058	0.174
CNC[C@@H](O)COc1ccc(Cl)c(-c2nc(-c3c(C)noc3C)c(C)c(N3CC4(CCC(OCC(F)F)CC4)C3)n2)c1 [Example 172]	0.0047	0.057
CNC[C@@H](O)COc1ccc(Cl)c(-c2nc(-c3c(C)noc3C)c(C)c(N3CC4(CCC(C(=O)N5CC(OC)C5)CC4)C3)n2)c1 [Example 173]	0.005	0.408
